Assay results published in patent US10738093B2, “Discovery of cationic nonribosomal peptides as Gram-negative antibiotics through global genome mining” (The Hong Kong University of Science and Technology, priority 2018, dated 2020).
Converted amounts (≈) assume the structure as drawn. Positions of bridges follow the written chain, without caps; N, C: chain ends. Non-standard residues stand in square brackets, D forms with d. Residues, ends and D or L forms follow the SMILES beside them. ξ: configuration not given here. *: point of attachment. Hexanoyl(4ξ-Me) = CCC(C)CCC(=O)*; dOrn = NCCC[C@@H](N)C(=O)O; Orn = NCCC[C@H](N)C(=O)O

Tests used:
[1] = system: Escherichia coli ATCC 25922; test: microbe, parasite or virus in culture; assay type: cell-based; conditions: ATCC 25922
Experimental: (§1) Minimum inhibitory concentration (MIC) was determined by broth microdilution according to CLSI guidelines. The test medium for most species was Mueller-Hinton broth (MHB). Bacteria were grown overnight to early stationary phase and adjusted in MHB to 5.0×10^5 colony-forming units per mL (c.f.u./mL) in the wells of 96-well microtiter plates, mixed with varying concentrations of test compounds and incubated at 37° C. for 24 h. […] MHBs containing 10% fetal bovine serum (Gibco), 21 mM MgCl, or 1.0 mg/ml LPS (lipopolysaccharides from Escherichia coli O55:B5, Sigma-Aldrich) were used to test their inhibitory effects.

[2] = system: Colistin-resistant E. coli (E. coli ATCC 25922 carrying mcr-1); assay type: cell-based, Escherichia coli
Experimental: as §1

[3] = system: E. coli Top10; assay type: cell-based, Escherichia coli; conditions: Top10
Experimental: as §1

[4] = system: Acinetobacter baumannii; assay type: cell-based
Experimental: as §1

[5] = system: Bacillus subtilis 168; assay type: cell-based; conditions: 168
Experimental: as §1

[6] = system: Candida albicans; assay type: cell-based
Experimental: as §1

[7] = system: Enterobacter cloacae NRRL-B-413; assay type: cell-based; conditions: NRRL-B-413
Experimental: as §1

[8] = system: Klebsiella pneumoniae NRRL-B-408; assay type: cell-based; conditions: NRRL-B-408
Experimental: as §1

[9] = system: Methicillin-resistant Staphylococcus aureus ATCC 43300; assay type: cell-based
Experimental: as §1

[10] = system: Pseudomonas aeruginosa PAO1; assay type: cell-based; conditions: PAO1
Experimental: as §1

[11] = system: E. cloacae NRRL-B-425; assay type: cell-based, Enterobacter cloacae; conditions: NRRL-B-425
Experimental: as §1

[12] = system: E. coli Top10; test: Time-kill assay; assay type: cell-based, Escherichia coli
Experimental: An overnight culture of E. coli Top10 or Pseudomonas aeruginosa PAO1 cells was diluted 1:10,000 in MHB and incubated at 37° C. with agitation at 180 rpm for 2 h (early exponential). The bacteria were then challenged with antibiotics at 10×MIC, brevicidine (20 μg/ml), laterocidine (20 μg/ml) or polymyxin B (10 μg/ml) at room temperature without shaking. An untreated sample of cells was used as a negative control. At intervals, 10 μL aliquots were removed, centrifuged at 10,000 g for 1 min and resuspended in 1.0 mL of sterile PBS. Tenfold-serially-diluted suspensions were plated on MHB agar plates and incubated at 37° C. overnight. Colonies were counted and the number of c.fu. per mL was calculated. For analysis of lysis, 300 μL of culture (OD600=1.0) were treated with 10×MIC of antibiotics for 24 h. Experiments were performed in triplicate.

[13] = system: E. coli Top10; test: Bacterial growth kinetics; assay type: cell-based, Escherichia coli; conditions: E. coli cells exposed to compound
Experimental: A fresh single colony of E. coli Top10 was inoculated into MHB (5 mL) and grown with shaking at 225 rpm overnight. The bacteria were diluted to 1×10^5 c.f.u./mL in fresh MHB, grown […] to early log-phase (OD=0.15) and treated with the antibiotics of interest in the wells of a 96-well plate. Final antibiotic concentrations varied from 1×MIC to 8×MIC. The plate was then incubated at 30° C. overnight, with OD 600 measurements taken every 30 seconds.

[14] = system: Escherichia coli ATCC 25922; test: Resistance acquisition during serial passaging; assay type: cell-based; conditions: serial passaging at subinhibitory concentrations over 30 days
Experimental: Escherichia coli ATCC 25922 was inoculated into MHB overnight at 37° C. with continuous shaking. Cells were diluted 10,000 times in MHB to about 1×10^6 c.f.u./mL. […] Plates with bacteria were incubated at 37° C. without shaking. […] This process was repeated for 30 d, and the final MIC was confirmed by the same antibacterial assay described above. The experiment was performed in quadruplicate, and on each day, the sample that developed the highest resistance was measured to plot the curve.

[15] = LPS binding by isothermal titration calorimetry; set-up: species or system Escherichia coli; conditions: ITC
Experimental: Microcalorimetric experiments of peptide binding to LPS were performed on an MCS isothermal titration calorimeter (ITC) (Microcal, Northampton, Mass.) at 37° C. LPS was prepared as a 50 μM aqueous suspension in 20 mM HEPES (pH 7.0) buffer by suspension, sonication and temperature cycling between 5° C. and 70° C. This suspension was stored at 4° C. overnight prior to use. 100 μM peptide solutions (brevicidine and polymyxin B) were prepared in the same buffer and all solutions were degassed prior to use by stirring under vacuum for 5 min at 37° C. After thermal equilibration, 5 μL aliquots of the peptide solution were added every 3 min into the lipid-containing cell at 37° C. and stirred constantly. The change in heat during the titration steps was registered in real time and raw data were processed using the Origin® 7 software provided with the instrument. In control experiments, the corresponding peptide solution (or LPS solution) was injected into the buffer without LPS (or without peptide).

[16] = system: E. coli ATCC 25922; test: Atomic force microscopy of treated E. coli; assay type: cell-based, Escherichia coli; conditions: E. coli ATCC25922, 10×MIC
Experimental: (§2) The samples were then centrifuged at 8000 g for 10 min at 4° C., and the pellet was washed twice in 100 lpL of apyrogenic water. The bacteria resuspended in 50 μL of apyrogenic water were applied to mica disks and dried overnight at 28° C. before imaging. Atomic force micrographs were recorded on a Veeco Mulitmode AFM with NanoScope III controller operating in contact mode. The data were analyzed with NanoScope Analysis software v.1.40 (Veeco, USA). Scans were acquired at 25° C. at the rates of 1.0 Hz and 256 samples per line resolution. Downstream image processing and analysis were performed using NanoScope software (Bruker). Height images were flattened to compensate for cell curvature, and topographical sections were used to generate two-dimensional reconstructions of surface texture.

[17] = system: P. aeruginosa PAO1; test: Atomic force microscopy of treated P. aeruginosa; assay type: cell-based, Pseudomonas aeruginosa
Experimental: as §2

SMILES: CCC(C)CCC(=O)N[C@H](CC(N)=O)C(=O)N[C@H](Cc1ccc(O)cc1)C(=O)N[C@H](Cc1c[nH]c2ccccc12)C(=O)N[C@H](CCCN)C(=O)N[C@@H](CCCN)C(=O)NCC(=O)N[C@H](CCCN)C(=O)N[C@@H](Cc1c[nH]c2ccccc12)C(=O)N[C@@H]1C(=O)N[C@@H]([C@@H](C)CC)C(=O)NCC(=O)N[C@H](CO)C(=O)O[C@@H]1C (stereo partly drawn) [Compound 1, 4-Methyl-Hexanoyl-D-Asn-D-Tyr-D-Trp-D-Orn-Orn-Gly-D-Orn-Trp-Thr-Ile-Gly-Ser (cyclized via lactone formation between Thr and the C-terminus)] ({Hexanoyl(4ξ-Me)}-[dN][dY][dW][dOrn][Orn]G[dOrn]WTIG[dS]; ester 9-C)
- MIC [1]: 2 µg/mL (≈ 1.32 µM)
- MIC Ec [1]: 2 µg/mL (≈ 1.32 µM)
- MIC [2]: 2 µg/mL (≈ 1.32 µM)
- MIC [3]: 2 µg/mL (≈ 1.32 µM)
- MIC [4]: 16 µg/mL (≈ 10.5 µM)
- MIC Ab [4]: 16 µg/mL (≈ 10.5 µM)
- MIC [5]: 32 µg/mL (≈ 21.1 µM)
- MIC Bs [5]: 32 µg/mL (≈ 21.1 µM)
- MIC [6]: >64 µg/mL
- MIC Ca ([6]; Table 2, Candida albicans): ND (ND >64 μg/ml)
- MIC [7]: 2 µg/mL (≈ 1.32 µM)
- MIC En [7]: 2 µg/mL (≈ 1.32 µM)
- MIC [8]: 2 µg/mL (≈ 1.32 µM)
- MIC ([9]; ATCC 43300): >64 µg/mL
- MIC MRSA ([9]; Table 2, Methicillin-resistant Staphylococcus aureus ATCC 43300): ND (ND >64 μg/ml)
- MIC [10]: 1 µg/mL (≈ 0.658 µM)
- MIC Pa [10]: 1 µg/mL (≈ 0.658 µM)
- MIC [11]: 2 µg/mL (≈ 1.32 µM)
- time of exposure to significant reduction of viable cells ([12]; 10 times the MIC): 30 min
- time of exposure to slightly reduced cell viability ([12]; 10 times the MIC): 15 min
- bactericidal against E. coli ([12]; growth kinetics, time-kill assay and lysis assay): bactericidal
- time of growth at a reduced rate before steady decrease in cell count [13]: 30 min
- development of resistance [14]: development of resistance was not observed
- Kd ([15]; 37° C., read-out: dissociation constant Kd for LPS): 6.5 µM
- binding to LPS ([15]; FIGS. 18a-18b): strong binding to LPS
- cell morphology by AFM [16]: lost their regular rod-like shape and became lumpy and rugged
- cell morphology by AFM [17]: lost their regular rod-like shape and became lumpy and rugged
